Laboratory results from patent publication US8957129B2, “Aqueous coatings and paints incorporating one or more antimicrobial biosurfactants and methods for using same” (priority 2012, dated 2015).
In brackets after ≈: the same amount, converted by molar mass. Where two headings read alike, the source gives them in different places.

Columns and labels:
fungi = assay: Challenge test of combinations of Rhamnolipids with Isothiazolinones in flat paint; assay type: cell-based; conditions: levels: RL 250 ppm, CMIT/MIT 5 ppm, MIT 25 ppm, BIT 50 ppm
Procedure: (§1) A second batch of flat paint formulation was prepared without any surfactants. Then Rhamnolipids (RL) were post-added to this formulation. The formulation was then subjected to an initial screen challenge test using 250 to 2000 ppm RL with mixed populations of E. coli and Pseudomonas aeruginosa.
(§2) Using the same paints, a biocide at lower use level was combined with Rhamnolipid (RL) at a minimum use of 250 ppm.

bacteria = assay: as above; assay type: cell-based; conditions: levels: RL 250 ppm, CMIT/MIT 5 ppm, MIT 25 ppm, BIT 50 ppm
Procedure: as §1, §2

Aspergillus niger = assay: MIC determination in broth media, two fold dilution, microtiter plates; assay type: cell-based
Bacillus cereus = assay: as above; assay type: cell-based; conditions: read-out: Minimum Inhibitory Concentration (MIC), alone (QA/QB)
Candida albicans = assay: as above; assay type: cell-based; conditions: read-out: Minimum Inhibitory Concentration (MIC), alone (QA/QB)
S. aureus = assay: as above; assay type: cell-based; conditions: Staphylococcus aureus, read-out: Minimum Inhibitory Concentration (MIC), alone (QA/QB)
B. cepacia = assay: as above; assay type: cell-based, Burkhlderia cepacia; conditions: for MIC: Burkholderia cepacia, read-out: Minimum Inhibitory Concentration (MIC), alone (QA/QB)
P. aeruginosa = assay: as above; assay type: cell-based, Pseudomonas aeruginosa; conditions: for MIC: Pseudomonas aeruginosa
E. coli = assay: as above; assay type: cell-based; conditions: Escherichia coli, read-out: Minimum Inhibitory Concentration (MIC), alone (QA/QB), E. coli, substance alone
[1] = B. cepacia, substance alone, broth

`O=c1[nH]sc2ccccc12` [BIT, Benz Isothiazolinone] was tested, and the “Day 1 Fungi growth” value (fungi) was “+”, the “Day 2 Fungi growth” value (fungi) was “+” and the “Day 5 Fungi growth” value (fungi) was “+”. For the same compound, the “Day 1 Bacteria growth” value (bacteria) was “−”, the “Day 2 Bacteria growth” value (bacteria) was “−” and the “Day 5 Bacteria growth” value (bacteria) was “−”. It also gave an MIC (Aspergillus niger; substance alone, read-out: Minimum Inhibitory Concentration (MIC), alone (QA/QB)) of 50 µg/mL (≈ 331 µM), an MIC (Bacillus cereus; substance alone, broth) of 25 µg/mL (≈ 165 µM) and an MIC (Candida albicans; substance alone, broth) of 25 µg/mL (≈ 165 µM). For the same compound, the MIC (S. aureus; S. aureus, substance alone, broth) was 25 µg/mL (≈ 165 µM), the “Minimum Inhibitory Concentration (MIC), alone (QA/QB)” value (“Minimum Inhibitory Concentration” for short) (B. cepacia; [1]) was 25 ppm and the MIC (B. cepacia; [1]) was 50 µg/mL (≈ 331 µM). For the same compound, the MIC (P. aeruginosa; P. aeruginosa, substance alone, read-out: Minimum Inhibitory Concentration (MIC), alone (QA/QB)) was 25 µg/mL (≈ 165 µM).

With `Cn1sccc1=O` [MIT, Methyl Isothiazolinone] the MIC (E. coli) was ~25 µg/mL (≈ 217 µM), the “Day 1 Fungi growth” value (fungi) was “+” and the “Day 2 Fungi growth” value (fungi) was “+”. The “Day 5 Fungi growth” value (fungi) was “−”, the “Day 1 Bacteria growth” value (bacteria) was “−” and the “Day 2 Bacteria growth” value (bacteria) was “−”. For the same compound, the “Day 5 Bacteria growth” value (bacteria) was “−”, the MIC (Aspergillus niger; read-out: Minimum Inhibitory Concentration (MIC), alone (QA/QB), Aspergillus niger, substance alone) was > 100 µg/mL and the “Minimum Inhibitory Concentration” value (Aspergillus niger; substance alone) was 100 ppm. The MIC (Bacillus cereus) was 25 µg/mL (≈ 217 µM), the MIC (Candida albicans) was 100 µg/mL (≈ 868 µM) and the MIC (S. aureus) was 25 µg/mL (≈ 217 µM). The MIC (B. cepacia) was 25 µg/mL (≈ 217 µM), the “Minimum Inhibitory Concentration” value (P. aeruginosa; P. aeruginosa, substance alone) was 25 ppm and the MIC (P. aeruginosa; read-out: Minimum Inhibitory Concentration (MIC), alone (QA/QB), P. aeruginosa, substance alone) was 12.5 µg/mL (≈ 109 µM).
